Measured values: patent publication US9233948B2, “Pharmaceutical compositions comprising N-(4-(2-amino-3-chloropyridin-4-yloxy)-3-fluorophenyl)-4-ethoxy-1-(4-fluorophenyl)-2-oxo-1,2-dihydropyridine-3-carboxamide” (Bristol-Myers Squibb Company, priority 2010, dated 2016)
In brackets after ≈: the same amount, converted by molar mass. Like-named read-outs stand apart in the source and are kept apart here. Values belong to the compound of their own block, whether it stands above or below them.

Tests used:
[1] = Chemical stability of tablets after accelerated storage; type: physicochemical; settings: control
Method: The chemical stability of the 25 mg tablet of Example 9 was evaluated after accelerated storage at various temperatures and humidity conditions for periods up to one month.

[2] = Aqueous solubility of crystalline forms of Compound (I); type: physicochemical
Text: However, in the presence of an aqueous medium, the neat crystalline Form N-1 can convert to the crystalline sesquihydrate Form H1.5-2. […] One method to increase the bioavailability of compounds in a suspension is to increase the surface area of the particles in contact with the aqueous medium, which can be achieved by decreasing the particle size. However, reductions in particle size below diameters of approximately one micron requires specialized milling and dispersion techniques to prepare, stabilize, and sterilize the sub-micron suspensions. Desired is an aqueous suspension of Compound (I) in Form N-1 that has sufficient resistance to conversion to the sesquihydrate Form H1.5-2 to allow oral administration.

[3] = Pharmacokinetics of capsules of Form N-1 with two particle sizes; design: species or system dogs; settings: dog, in vivo, 10 mg/kg, 10 mpk; for bioavailability: oral, compared to IV data, read-out: Absolute Bioavailability; for AUC / Cmax / Tmax: po
Method: The microsuspension of Example 7, tablets, and hard gelatin capsules containing the phosphate salt of Compound (I) were dosed orally at 10 mg/kg in dogs pretreated with pentagastrin. The resulting exposures were compared to an absolute bioavailability calculated by comparison to an IV dose in the same animals. Capsules were prepared comprising Compound (I), Form N-1 with two different particle sizes.

[4] = Chemical and physical stability testing of Form N-1; type: physicochemical; settings: several different temperature and humidity conditions
[5] = Particle Diameter D90 10 micron
[6] = Particle Diameter D90 70 micron

Total Impurity [1]: 0.13%
SMILES: CCOc1ccn(-c2ccc(F)cc2)c(=O)c1C(=O)Nc1ccc(Oc2ccnc(N)c2Cl)c(F)c1 [Compound (I), N-(4-(2-Amino-3-chloropyridin-4-yloxy)-3-fluorophenyl)-4-ethoxy-1-(4-fluorophenyl)-2-oxo-1,2-dihydropyridine-3-carboxamide]

solubility ([2]; aqueous medium, aqueous buffer, pH 7.4 and room temperature): ~0.25 µg/mL (≈ 0.487 µM)
bioavailability [3, 5]: ~32%
bioavailability [3, 6]: 12%
AUC [3, 5]: 90.2 ± 5.5 µM·h
Cmax [3, 5]: 15 ± 2.7 µM
Tmax [3, 5]: 6 h
AUC [3, 6]: 33.3 ± 8.4 µM·h
Cmax [3, 6]: 6.9 ± 1.1 µM
Tmax [3, 6]: 2 h
chemical and physical stability [4]: suitable chemical and physical stability
SMILES: CCOc1ccn(-c2ccc(F)cc2)c(=O)c1C(=O)Nc1ccc(Oc2ccnc(N)c2Cl)c(F)c1 [Form N-1, N-(4-(2-Amino-3-chloropyridin-4-yloxy)-3-fluorophenyl)-4-ethoxy-1-(4-fluorophenyl)-2-oxo-1,2-dihydropyridine-3-carboxamide]

SMILES: CCOc1ccn(-c2ccc(F)cc2)c(=O)c1C(=O)Nc1ccc(Oc2ccnc(N)c2Cl)c(F)c1 [Form H1.5-2, N-(4-(2-Amino-3-chloropyridin-4-yloxy)-3-fluorophenyl)-4-ethoxy-1-(4-fluorophenyl)-2-oxo-1,2-dihydropyridine-3-carboxamide]
aqueous solubility compared to Form N-1 [2]: lower aqueous solubility compared to Form N-1
